This note sets out measurements from patent publication US8691856B2 (Eli Lilly and Company, priority 2005, dated 2014).

The structures appear in SMILES notation.

The test addresses cloned human glucagon receptor (Homo sapiens (Human), UniProt P47871). Briefly: Glucagon Receptor (hGlucR) Binding Assay.

Sequence of cloned human glucagon receptor (P47871 26-477): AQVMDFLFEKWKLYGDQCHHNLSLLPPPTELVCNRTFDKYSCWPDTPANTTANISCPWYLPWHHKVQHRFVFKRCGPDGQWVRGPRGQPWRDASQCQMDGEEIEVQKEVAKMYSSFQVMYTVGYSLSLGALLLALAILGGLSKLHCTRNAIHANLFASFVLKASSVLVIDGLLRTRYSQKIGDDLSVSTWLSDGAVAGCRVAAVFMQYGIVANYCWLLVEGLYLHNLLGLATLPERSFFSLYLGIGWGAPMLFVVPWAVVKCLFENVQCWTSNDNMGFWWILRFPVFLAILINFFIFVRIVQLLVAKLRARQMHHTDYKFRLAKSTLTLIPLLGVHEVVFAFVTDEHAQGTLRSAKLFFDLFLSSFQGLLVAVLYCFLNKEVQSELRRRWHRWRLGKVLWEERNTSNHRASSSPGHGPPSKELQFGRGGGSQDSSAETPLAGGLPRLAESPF
Description: The hGlucuR cDNA is subcloned into the expression plasmid phD (Trans-activated expression of fully gamma-carboxylated recombinant human protein C, an antithrombotic factor. Grinnell, B. W., Berg, D. T., Walls, J. and Yan, S. B. Bio/Technology 5: 1189-1192 (1987)). This plasmid DNA is transfected into 293 HEK cells and selected with 200 μg/mL Hygromycin.
Crude plasma membranes are prepared using cells from suspension culture. The cells are lysed on ice in hypotonic buffer containing 25 mM Tris HCL, pH 7.5, 1 mM MgCl2, DNAse1, 20 u/mL, and Roche Complete Inhibitors-without EDTA. The cell suspension is homogenized with a glass dounce homogenizer using a Teflon pestle for 25 strokes. The homogenate is centrifuged at 4 degrees C. at 1800×g for 15 mins. The supernate is collected and the pellet is resuspended in hypotonic buffer and rehomogenized. The mixture is centrifuged at 1800×g for 15 mins. The second supernate is combined with the first supernate. The combined supernates are recentrifuged at 1800×g for 15 mins to clarify. The clarified supernate is transferred to high speed tubes and centrifuged at 25000×g for 30 minutes at 4 degrees C. […]
The binding buffer contains 25 mM Hepes, pH 7.4, 2.5 mM CaCl2, 1 mM MgCl2, 0.1% fatty acid free BSA, (ICN), 0.003% tween-20, and Roche Complete Inhibitors without EDTA. […] Plates are read with a MicroBeta after 14 hours of settling time at room temp. […]

As usually defined, the Ki is the equilibrium dissociation constant of an inhibitor or competing ligand from its target. Higher therefore signals lower affinity. `Cc1cc(OC(CCC(C)(C)C)c2ccc(C(=O)Nc3nnn[nH]3)cc2)cc(C)c1-c1ccc(C(F)(F)F)cc1` (stereo not shown) yielded a Ki of 93.3 nM.
